Experimental data reported in patent US20050079613A1, “Downregulation of cell surface glycoproteins by a family of human ubiquitin ligases” (Oregon Health & Science University, priority 2002, published 2005).

Tested on: HLA-A2.1
Experiment: Pulse-chase of HLA-A2.1 maturation and turnover in transfected HeLa cells
Type: cell-based, human
Conditions: for effect of inhibitor on degradation of HLA-A2.1 heavy chains: MARCH-IV and HLA-A2.1 co-transfected cells, concanamycin A 50 nM, lactacystin 20 μM
Experimental: Metabolic labeling, immunoprecipitation and Western blotting. HeLa cells were grown to 80% confluency in 100 mm tissue culture dishes and transfected as above. Cells were incubated in serum-free and methionine-free medium for 30 minutes, and metabolically labeled with ^35S-cysteine/^35S-methionine (250 μCi, Amersham) for the indicated time. After labeling, cells were washed twice with PBS and either lysed immediately in PBS containing 1% Triton X-100 and protease inhibitors (Roche, Indianapolis, Ind.), or the label was chased with excess (2 mM) unlabeled cysteine and methionine in the presence or absence of specific inhibitors for the indicated time. The cell lysates were precleared with protein A/G agarose beads and incubated with 3 μg of antibody for one hour and followed by two hours incubation with protein A/G beads. Immunoprecipated proteins were washed five times with 0.1% Triton X-100 in PBS. All samples were boiled in SDS buffer and analyzed by SDS-PAGE gel electrophoresis. Where indicated, samples were treated with Endoglycosidase H (Roche) according to manufacturer's instructions. Briefly, samples were initially denatured at 100° C. in 40 μl of 0.3% SDS, 150 mM 2-mercaptoethanol, 50 mM sodium acetate, pH 5.5 and incubated with 4 milli-Units of Endo H overnight at 37° C. All samples were boiled in SDS buffer and analyzed by SDS-PAGE gel electrophoresis. Gels were fixed, dried and exposed to Kodak BioMax MR film. Western blotting was accomplished using the WesternBreeze Chemiluminescent Detection System (Invitrogen) following Semi-dry transfer to PVDF membranes (Millipore, Bedford, Mass.).
To determine the ultimate fate of the MHC I molecules in the presence of MARCH-IV, the maturation and turnover of co-transfected HLA-A2.1 in pulse-chase experiments (FIG. 12B) was followed. In the absence of MARCH-IV, HLA-A2.1 molecules acquired Endo H resistance after 1 hour of chase indicating exit from the ER. […]

Row | Compound | effect of inhibitor on degradation of HLA-A2.1 heavy chains | effect of inhibitor on HLA-A2.1 in the absence of MARCH-IV (cells without MARCH-IV)
1 | C/C=C/[C@H]1O[C@@](O)([C@@H](C)[C@H](O)[C@H](C)[C@H]2OC(=O)/C(OC)=C/C(C)=C/[C@@H](C)[C@@H](O)[C@@H](CC)[C@@H](O)[C@H](C)C/C(C)=C/C=C/[C@@H]2OC)C[C@@H](O[C@H]2C[C@@H](O)[C@H](OC(N)=O)[C@@H](C)O2)[C@@H]1C [concanamycin A] | delayed the degradation of HLA-A2.1 | no effect
2 | CC(=O)N[C@@H](CSC(=O)[C@]1([C@@H](O)C(C)C)NC(=O)[C@H](C)[C@@H]1O)C(=O)O [lactacystin] | did not increase recovery of HLA-A2.1 heavy chains | –
